Laboratory results as given in ChEMBL document CHEMBL5518240 (J Med Chem, 2024).
Activity calls are given as the source filed them. The rule behind the calls is not given here.

What was measured:
[1] = target: T1, Protein cereblon/CREB-binding protein (Homo sapiens, UniProt Q92793+Q96SW2); experiment: PROTAC activity at CBP/CRBN in human VCaP cells assessed as protein degradation incubated for 4 hrs by Western blot analysis; type: cell-based
[2] = target: T1, Protein cereblon/CREB-binding protein; experiment: PROTAC activity at CBP/CRBN in human VCaP cells assessed as maximal protein degradation at 1 uM incubated for 4 hrs by Western blot analysis relative to control; type: cell-based
[3] = target: T2, Protein cereblon/Histone acetyltransferase p300 (Homo sapiens, UniProt Q09472+Q96SW2); experiment: PROTAC activity at p300/CRBN in human VCaP cells assessed as protein degradation incubated for 4 hrs by Western blot analysis; type: cell-based
[4] = target: T2, Protein cereblon/Histone acetyltransferase p300; experiment: PROTAC activity at p300/CRBN in human VCaP cells assessed as maximal protein degradation at 1 uM incubated for 4 hrs by Western blot analysis relative to control; type: cell-based
Target sequence in this assay (Q09472 2-2414 limits assumed): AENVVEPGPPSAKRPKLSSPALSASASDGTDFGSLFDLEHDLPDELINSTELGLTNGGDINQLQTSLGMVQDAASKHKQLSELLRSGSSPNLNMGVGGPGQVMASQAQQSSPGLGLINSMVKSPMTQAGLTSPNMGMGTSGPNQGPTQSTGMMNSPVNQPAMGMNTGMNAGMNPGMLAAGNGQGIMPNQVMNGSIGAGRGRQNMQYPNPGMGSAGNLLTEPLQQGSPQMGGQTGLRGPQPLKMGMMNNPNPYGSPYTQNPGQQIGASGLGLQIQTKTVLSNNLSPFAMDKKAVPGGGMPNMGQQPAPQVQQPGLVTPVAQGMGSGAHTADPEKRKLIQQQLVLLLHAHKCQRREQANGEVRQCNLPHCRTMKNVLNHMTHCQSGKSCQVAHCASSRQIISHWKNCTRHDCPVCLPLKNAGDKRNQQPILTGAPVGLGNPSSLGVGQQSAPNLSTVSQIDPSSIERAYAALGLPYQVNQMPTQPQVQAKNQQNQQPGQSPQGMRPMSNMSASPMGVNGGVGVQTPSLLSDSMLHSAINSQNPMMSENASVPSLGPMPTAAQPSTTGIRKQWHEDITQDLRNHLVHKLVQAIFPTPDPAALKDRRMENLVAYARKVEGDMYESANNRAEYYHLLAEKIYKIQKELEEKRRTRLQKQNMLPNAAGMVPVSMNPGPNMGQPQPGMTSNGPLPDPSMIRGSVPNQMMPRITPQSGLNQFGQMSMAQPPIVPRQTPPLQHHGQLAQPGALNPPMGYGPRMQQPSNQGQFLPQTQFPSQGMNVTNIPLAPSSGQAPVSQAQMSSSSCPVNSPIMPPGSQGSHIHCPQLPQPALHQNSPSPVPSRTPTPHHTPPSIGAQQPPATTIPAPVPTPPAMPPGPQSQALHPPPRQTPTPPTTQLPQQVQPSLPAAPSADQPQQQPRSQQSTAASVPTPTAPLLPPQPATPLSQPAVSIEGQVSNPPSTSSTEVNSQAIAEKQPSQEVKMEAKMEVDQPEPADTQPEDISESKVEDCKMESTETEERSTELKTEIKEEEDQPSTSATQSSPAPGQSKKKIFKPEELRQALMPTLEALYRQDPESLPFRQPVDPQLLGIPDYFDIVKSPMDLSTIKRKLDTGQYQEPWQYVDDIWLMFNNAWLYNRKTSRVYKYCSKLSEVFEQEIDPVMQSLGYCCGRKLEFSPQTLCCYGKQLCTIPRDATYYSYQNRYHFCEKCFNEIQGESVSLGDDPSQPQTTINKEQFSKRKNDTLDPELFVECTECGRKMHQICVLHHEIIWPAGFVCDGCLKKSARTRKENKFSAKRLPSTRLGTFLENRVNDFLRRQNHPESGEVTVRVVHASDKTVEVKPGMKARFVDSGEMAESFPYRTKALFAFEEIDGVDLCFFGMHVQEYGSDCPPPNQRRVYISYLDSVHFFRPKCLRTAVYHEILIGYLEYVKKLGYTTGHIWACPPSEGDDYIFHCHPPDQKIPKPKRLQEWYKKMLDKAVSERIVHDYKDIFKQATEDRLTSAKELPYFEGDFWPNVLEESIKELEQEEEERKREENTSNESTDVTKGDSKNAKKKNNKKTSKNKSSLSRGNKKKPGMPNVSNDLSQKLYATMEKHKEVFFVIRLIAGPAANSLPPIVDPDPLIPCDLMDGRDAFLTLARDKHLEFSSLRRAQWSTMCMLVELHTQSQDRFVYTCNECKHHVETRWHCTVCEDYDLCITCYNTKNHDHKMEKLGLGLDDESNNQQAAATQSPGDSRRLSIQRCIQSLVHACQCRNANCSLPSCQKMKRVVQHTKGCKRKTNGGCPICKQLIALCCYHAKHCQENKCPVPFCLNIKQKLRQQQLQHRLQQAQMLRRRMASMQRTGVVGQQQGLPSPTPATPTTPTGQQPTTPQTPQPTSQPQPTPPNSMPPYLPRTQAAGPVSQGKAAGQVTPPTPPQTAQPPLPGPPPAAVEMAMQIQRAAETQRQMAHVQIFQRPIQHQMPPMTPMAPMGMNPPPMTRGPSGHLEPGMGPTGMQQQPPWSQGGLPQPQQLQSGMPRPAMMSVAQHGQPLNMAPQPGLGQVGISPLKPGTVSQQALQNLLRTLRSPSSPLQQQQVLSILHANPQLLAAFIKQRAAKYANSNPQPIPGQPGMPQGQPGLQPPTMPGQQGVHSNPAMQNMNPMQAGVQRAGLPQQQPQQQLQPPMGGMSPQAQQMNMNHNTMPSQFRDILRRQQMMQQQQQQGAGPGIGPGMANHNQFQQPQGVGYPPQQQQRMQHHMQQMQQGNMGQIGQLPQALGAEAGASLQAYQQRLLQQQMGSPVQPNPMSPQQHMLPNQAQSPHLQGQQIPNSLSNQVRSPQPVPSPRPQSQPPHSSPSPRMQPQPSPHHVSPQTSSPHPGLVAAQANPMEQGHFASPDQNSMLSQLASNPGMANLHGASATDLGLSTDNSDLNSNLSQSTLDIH
Target sequence in this assay (Q96SW2 whole entry partner): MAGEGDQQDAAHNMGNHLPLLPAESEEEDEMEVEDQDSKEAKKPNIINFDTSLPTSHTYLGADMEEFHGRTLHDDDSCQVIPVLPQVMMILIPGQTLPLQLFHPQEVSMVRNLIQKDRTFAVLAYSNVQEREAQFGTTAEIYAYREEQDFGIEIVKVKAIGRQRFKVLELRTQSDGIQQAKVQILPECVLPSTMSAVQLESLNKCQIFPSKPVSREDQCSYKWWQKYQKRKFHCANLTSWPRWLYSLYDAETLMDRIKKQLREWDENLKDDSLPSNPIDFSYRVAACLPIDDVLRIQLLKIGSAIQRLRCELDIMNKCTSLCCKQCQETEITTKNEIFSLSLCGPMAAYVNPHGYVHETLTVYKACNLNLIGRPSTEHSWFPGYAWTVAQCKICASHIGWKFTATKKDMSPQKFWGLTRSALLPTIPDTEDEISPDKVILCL

[5] = Oral plasma exposure in SCID mouse at 5 mg/kg, po measured after 1 hr; type: ADME, organism-based; details: for concentration at 1 h: SCID, plasma
[6] = Oral plasma exposure in SCID mouse at 5 mg/kg, po measured after 3 hrs; type: ADME, organism-based; details: for concentration at 3 h: SCID, plasma
[7] = Oral plasma exposure in SCID mouse at 5 mg/kg, po measured after 6 hrs; type: ADME, organism-based; details: for concentration at 6 h: SCID, plasma
VCaP [8] = experiment: Antiproliferative activity against AR positive human VCaP cells assessed inhibition of cell growth measured after 4 days by CellTiter-Glo Luminescent cell viability assay; type: functional, cell-based; details: 96 h
CWR22R [9] = experiment: Antiproliferative activity against AR positive human 22Rv1 cells assessed inhibition of cell growth measured after 4 days by CellTiter-Glo Luminescent cell viability assay; type: functional, cell-based; details: 22Rv1, 96 h
LNCaP [10] = experiment: Antiproliferative activity against AR positive human LNCaP cells assessed inhibition of cell growth measured after 4 days by CellTiter-Glo Luminescent cell viability assay; type: functional, cell-based; details: 96 h
VCaP [11] = experiment: Reduction in KLK3 gene expression in AR positive human VCaP cells assessed as reduction in mRNA level at 1000 nM measured after 6 hrs by qRT-PCT analysis; type: functional, cell-based
VCaP [12] = experiment: Reduction in AR gene expression in AR positive human VCaP cells assessed as reduction in mRNA level at 1000 nM measured after 6 hrs by qRT-PCT analysis; type: functional, cell-based
VCaP [13] = experiment: Reduction in c-Myc gene expression in AR positive human VCaP cells assessed as reduction in mRNA level at 1000 nM measured after 6 hrs by qRT-PCT analysis; type: functional, cell-based
LNCaP [14] = experiment: Reduction in KLK3 gene expression in AR positive human LNCaP cells assessed as reduction in mRNA level at 1000 nM measured after 6 hrs by qRT-PCT analysis; type: functional, cell-based
LNCaP [15] = experiment: Reduction in AR gene expression in AR positive human LNCaP cells assessed as reduction in mRNA level at 1000 nM measured after 6 hrs by qRT-PCT analysis; type: functional, cell-based
LNCaP [16] = experiment: Reduction in c-Myc gene expression in AR positive human LNCaP cells assessed as reduction in mRNA level at 1000 nM measured after 6 hrs by qRT-PCT analysis; type: functional, cell-based
CWR22R [17] = experiment: Reduction in KLK3 gene expression in AR positive human 22Rv1 cells assessed as reduction in mRNA level at 1000 nM measured after 6 hrs by qRT-PCT analysis; type: functional, cell-based
CWR22R [18] = experiment: Reduction in AR gene expression in AR positive human 22Rv1 cells assessed as reduction in mRNA level at 1000 nM measured after 6 hrs by qRT-PCT analysis; type: functional, cell-based
CWR22R [19] = experiment: Reduction in c-Myc gene expression in AR positive human 22Rv1 cells assessed as reduction in mRNA level at 1000 nM measured after 6 hrs by qRT-PCT analysis; type: functional, cell-based
VCaP [20] = experiment: Antitumor activity against human VCaP cells xenografted in CB17 SCID mouse model assessed as tumor growth inhibition at 20 mg/kg, po qd scheduled 5 days in a week measured on day 63; type: functional; details: 1512 h, time 63 day, read-out: TGI

SMILES | DC50 [1] | Emax [2] | DC50 [3] | Emax [4] | concentration at 1 h [5] | concentration at 3 h [6] | concentration at 6 h [7] | further results
CC(=O)N1CCc2c(c(N3CCCc4cc(-c5cnn(C)c5)c(C(F)F)cc43)nn2C2CCN(C(=O)CCNc3ccc4c(c3)C(=O)N(C3CCC(=O)NC3=O)C4=O)CC2)C1 (configuration not stated) | 0.9 nM | > 95% | 0.4 nM | > 95% | 5.1 ng/mL | 3.2 ng/mL | 2 ng/mL | 
CC(=O)N1CCc2c(c(N3CCCc4cc(-c5cnn(C)c5)c(C(F)F)cc43)nn2C2CCN(C(=O)c3ccc4c(c3)C(=O)N(C3CCC(=O)NC3=O)C4=O)CC2)C1 (configuration not stated) | > 1000 nM | < 50% | > 1000 nM | < 50% |  |  |  | 
CC(=O)N1CCc2c(c(N3CCCc4cc(-c5cnn(C)c5)c(C(F)F)cc43)nn2[C@H]2CC[C@H](CN3CCN(c4ccc5c(c4)CN(C4CCC(=O)NC4=O)C5=O)CC3)CC2)C1 (some centres not stated) | 0.1 nM | > 95% | < 0.1 nM | > 95% |  |  |  | 
CNC(=O)c1ccc(N2C(=S)N(c3ccc(C#N)c(C(F)(F)F)c3)C(=O)C2(C)C)cc1F [ENZALUTAMIDE] |  |  |  |  |  |  |  | IC50 (VCaP [8]): 9500 nM; IC50 (CWR22R [9]): > 1000 nM; IC50 (LNCaP [10]): 8000 nM; Activity (VCaP [11]): Active; Activity (VCaP [12]): inactive; Activity (VCaP [13]): Active; Activity (LNCaP [14]): Active; Activity (LNCaP [15]): inactive; Activity (LNCaP [16]): Active; Activity (CWR22R [17]): Active; Activity (CWR22R [18]): inactive; Activity (CWR22R [19]): Active; inhibition in vivo at 20 mg/kg (VCaP [20]): 2.8%
CC(=O)N1CCc2c(c(N3CCCc4cc(-c5cnn(C)c5)c(C(F)F)cc43)nn2C2CCN(C(=O)CCCCCNc3cccc4c3C(=O)N(C3CCC(=O)NC3=O)C4=O)CC2)C1 (configuration not stated) | 0.4 nM | 115% | 0.2 nM | > 95% |  |  |  | 
CC(=O)N1CCc2c(c(N3CCCc4cc(-c5cnn(C)c5)c(C(F)F)cc43)nn2C2CCN(C3CN(c4ccc5c(c4)C(=O)N(C4CCC(=O)NC4=O)C5=O)C3)CC2)C1 (configuration not stated) | 1.3 nM | > 95% | 1.1 nM | > 95% | 1050 ng/mL | 962 ng/mL | 613 ng/mL | 
CC(=O)N1CCc2c(c(N3CCCc4cc(-c5cnn(C)c5)c(C(F)F)cc43)nn2C2CCN(C(=O)Nc3ccc4c(c3)C(=O)N(C3CCC(=O)NC3=O)C4=O)CC2)C1 (configuration not stated) | < 0.2 nM | > 95% | < 0.2 nM | > 95% |  |  |  | Cp ([5]; in vivo, po, 5 mg/kg, 1 h, BLD = below limit of detection): Bld; Cp ([6]; in vivo, po, 5 mg/kg, 3 h, BLD = below limit of detection): Bld; Cp ([7]; in vivo, po, 5 mg/kg, 6 h, BLD = below limit of detection): Bld
CC(=O)N1CCc2c(c(N3CCCc4cc(-c5cnn(C)c5)c(C(F)F)cc43)nn2C2CCN(C(=O)CCCNc3cccc4c3C(=O)N(C3CCC(=O)NC3=O)C4=O)CC2)C1 (configuration not stated) | 1.4 nM | 92% | 1.2 nM | 93% |  |  |  | 
CC(=O)N1CCc2c(c(N3CCCc4cc(-c5cnn(C)c5)c(C(F)F)cc43)nn2C2CCN(C(=O)c3cccc4c3C(=O)N(C3CCC(=O)NC3=O)C4=O)CC2)C1 (configuration not stated) | > 1000 nM | < 50% | > 1000 nM | < 50% |  |  |  | 
CC(=O)N1CCc2c(c(N3CCCc4cc(-c5cnn(C)c5)c(C(F)F)cc43)nn2C2CCN(C(=O)CCNc3cccc4c3C(=O)N(C3CCC(=O)NC3=O)C4=O)CC2)C1 (configuration not stated) | 8 nM | 88% | 18 nM | 81% |  |  |  | 
CC(=O)N1CCc2c(c(N3CCCc4cc(-c5cnn(C)c5)c(C(F)F)cc43)nn2[C@H]2CC[C@H](CN3CCN(c4cccc5c4C(=O)N(C4CCC(=O)NC4=O)C5=O)CC3)CC2)C1 (some centres not stated) | 700 nM | 53% | > 1000 nM | 33% |  |  |  | 
CC(=O)N1CCc2c(c(N3CCCc4cc(-c5cnn(C)c5)c(C(F)F)cc43)nn2C2CCN(C(=O)CNc3ccc4c(c3)C(=O)N(C3CCC(=O)NC3=O)C4=O)CC2)C1 (configuration not stated) | 0.7 nM | > 95% | 2 nM | > 95% | 2.6 ng/mL | 1.4 ng/mL | 1.5 ng/mL | 
CC(=O)N1CCc2c(c(N3CCCc4cc(-c5cnn(C)c5)c(C(F)F)cc43)nn2C2CCN(C(=O)CCCCNc3ccc4c(c3)C(=O)N(C3CCC(=O)NC3=O)C4=O)CC2)C1 (configuration not stated) | 0.4 nM | > 95% | 0.4 nM | > 95% |  |  |  | 
CC(=O)N1CCc2c(c(N3CCCc4cc(-c5cnn(C)c5)c(C(F)F)cc43)nn2C2CCN(C3CCN(c4ccc5c(c4)C(=O)N(C4CCC(=O)NC4=O)C5=O)CC3)CC2)C1 (configuration not stated) | 1.1 nM | > 95% | 0.6 nM | > 95% | 122 ng/mL | 122 ng/mL | 82.2 ng/mL | 
CC(=O)N1CCc2c(c(N3CCCc4cc(-c5cnn(C)c5)c(C(F)F)cc43)nn2C2CCN(C(=O)CCCCNc3cccc4c3C(=O)N(C3CCC(=O)NC3=O)C4=O)CC2)C1 (configuration not stated) | 0.4 nM | > 95% | 0.1 nM | > 95% | 5.4 ng/mL | 2.7 ng/mL | 1.6 ng/mL | 
CC(=O)N1CCc2c(c(N3CCCc4cc(-c5cnn(C)c5)c(C(F)F)cc43)nn2C2CCN(C3CC4(CCN(c5ccc6c(c5)C(=O)N(C5CCC(=O)NC5=O)C6=O)CC4)C3)CC2)C1 (configuration not stated) | 1.1 nM | > 95% | 0.4 nM | > 95% | 493 ng/mL | 312 ng/mL | 328 ng/mL | 
CC(=O)N1CCc2c(c(N3CCCc4cc(-c5cnn(C)c5)c(C(F)F)cc43)nn2C2CCN(CC3CN(c4ccc5c(c4)C(=O)N(C4CCC(=O)NC4=O)C5=O)C3)CC2)C1 (configuration not stated) | 1.1 nM | > 95% | 0.4 nM | > 95% | 23.8 ng/mL | 16.7 ng/mL | 7.4 ng/mL | 
CC(=O)N1CCc2c(c(N3CCCc4cc(-c5cnn(C)c5)c(C(F)F)cc43)nn2C2CCN(C(=O)Nc3cccc4c3C(=O)N(C3CCC(=O)NC3=O)C4=O)CC2)C1 (configuration not stated) | > 1000 nM | < 50% | > 1000 nM | < 50% |  |  |  | 
CC(=O)N1CCc2c(c(N3CCCc4cc(-c5cnn(C)c5)c(C(F)F)cc43)nn2C2CCN(C3CC4(C3)CN(c3ccc5c(c3)C(=O)N(C3CCC(=O)NC3=O)C5=O)C4)CC2)C1 (configuration not stated) | 0.5 nM | > 95% | 0.4 nM | > 95% | 183 ng/mL | 235 ng/mL | 149 ng/mL | 
